# Measured values: ChEMBL document CHEMBL1201862, “PubChem BioAssay data set” (2004)
# Activity calls are given as the source filed them.
# What was measured:
# Cytochrome P450 2C9 [1] = biological target: T1, Cytochrome P450 2C9 (Homo sapiens, UniProt P11712)
# H9c2 = test: cells; type: functional, cell-based; settings: Rattus norvegicus, H9c2, Myocardium;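 also: confirmatory concentration-response retest of ultra-high-throughput screening hits for modulation of myocardial damage; cell death induced by hydrogen peroxide oxidative stress; compound pretreatment for 60 min then peroxide exposure for 2 h; potency is for protecting the cells against peroxide damage rather than for killing them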
# Cytochrome P450 2D6 = Cytochrome P450 2D6 (Homo sapiens, UniProt P10635);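 also: CYP2D6 member of a cytochrome P450 panel assay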
# Cytochrome P450 1A2 = biological target: T2, Cytochrome P450 1A2 (Homo sapiens, UniProt P05177);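 also: PubChem cytochrome P450 panel assay, CYP1A2 panel member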
# T2 sequence (P05177 whole entry): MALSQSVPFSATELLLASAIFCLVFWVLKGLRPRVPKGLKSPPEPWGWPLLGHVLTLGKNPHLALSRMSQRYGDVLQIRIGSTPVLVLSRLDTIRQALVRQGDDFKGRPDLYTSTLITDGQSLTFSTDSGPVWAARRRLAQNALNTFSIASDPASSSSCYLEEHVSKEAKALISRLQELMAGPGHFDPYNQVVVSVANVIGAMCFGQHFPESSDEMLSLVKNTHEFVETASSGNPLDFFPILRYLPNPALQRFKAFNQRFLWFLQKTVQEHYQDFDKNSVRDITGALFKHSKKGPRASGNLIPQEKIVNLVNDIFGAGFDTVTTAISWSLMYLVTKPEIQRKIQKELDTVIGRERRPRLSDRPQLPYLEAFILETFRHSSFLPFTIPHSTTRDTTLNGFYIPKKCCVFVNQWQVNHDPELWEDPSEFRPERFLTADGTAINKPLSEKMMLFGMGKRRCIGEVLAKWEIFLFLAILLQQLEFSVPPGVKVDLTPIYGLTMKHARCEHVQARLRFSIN
# Cytochrome P450 2C9 [2] = biological target: T1, Cytochrome P450 2C9; remark: listed apart in the source
# [3] = cytotoxicity toward NIH3T3 fibroblasts, dose response, counter-screen, cell-based, ATP luminescence, mouse fibroblasts (AID 2010); type: functional;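 also: cells exposed to compound for about 90 hours before reading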
# [4] = Luminescence Cell-Based Dose Retest to Confirm Inhibitors of Cancer Stem Cells. [Related pubchem assays (depositor defined):AID2717, AID2721]; type: functional; settings: Homo sapiens
# [5] = inhibitors of intracellular T. cruzi replication, confirmation, NIH3T3 host cells, beta-gal luminescence (AID 2044); type: functional, cell-based;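 also: intracellular parasites grown in NIH/3T3 mouse fibroblasts as host cells; luminescent beta-galactosidase reporter signal from transgenic T. cruzi replicating inside host cells; inhibitors lower the luminescence signal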
# [6] = growth suppression of PTEN-null colon cells, dose response, cell-based, HCT116 PTEN knockout (AID 1047); type: functional;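 also: HCT116 colon tumor cells with PTEN knocked out; cells exposed to compound for 60 hours before readout; potency for loss of cell viability measured by luminescence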
# [7] = growth suppression of beta-catenin-knockout colon cells, dose response, cell-based, HCT116, human colon tumor (AID 1045); type: functional;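 also: HCT116 colon tumor cells with beta catenin knocked out; cells exposed to compound for 60 hours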
# Nonstructural protein 1 = Nonstructural protein 1 (Influenza A virus, UniProt Q194T2); type: functional, Influenza A virus (A/California/07/2009(H1N1))
# Fatty acid synthase [8] = biological target: T3, Fatty acid synthase (Homo sapiens, UniProt P49327); test: FAS thioesterase domain inhibitors, dose response, biochemical, endpoint fluorescence intensity, uHTS hits (AID 624327); type: functional;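 also: fluorescence from hydrolysis of an O-methyl fluorescein acyl ester substrate by the enzyme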
# Fatty acid synthase [9] = biological target: T3, Fatty acid synthase; test: FAS thioesterase domain inhibitors, dose response, biochemical, kinetic fluorescence intensity (AID 624326); type: functional;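 also: rate of fluorescence rise from hydrolysis of a fluorogenic O-methyl fluorescein ester substrate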
# [10] = cytotoxicity in HEK-293T cells, dose response, cytotoxicity control for TCR NF-kB inhibitor project, luminescence, T-cell screen hits (AID 489026); type: functional, cell-based;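 also: cells exposed to compound about 14 hours before the viability readout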
# INS1 = test: beta cell apoptosis inhibitors, cytokine rescue, dose response, luminescence, retest (AID 449756); type: functional, cell-based; settings: Rattus norvegicus;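 also: cell death triggered by IL-1 beta plus TNF-alpha plus IFN-gamma mixture; protective hits raise ATP signal compared with cytokine alone wells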
# [11] = biological target: T4, Sentrin-specific protease 8 (Homo sapiens, UniProt Q96LD8); type: functional;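 also: luminescence read-out of SENP8 inhibition, dose-response confirmation following an ultra-high-throughput screen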
# T4 sequence (Q96LD8 whole entry): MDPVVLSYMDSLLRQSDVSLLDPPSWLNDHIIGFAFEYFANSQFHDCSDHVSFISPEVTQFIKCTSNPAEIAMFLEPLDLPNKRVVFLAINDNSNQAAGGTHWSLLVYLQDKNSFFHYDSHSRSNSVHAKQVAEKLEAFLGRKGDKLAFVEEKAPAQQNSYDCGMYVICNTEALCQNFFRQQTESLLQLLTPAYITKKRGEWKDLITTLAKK
# [12] = biological target: T5, Sentrin-specific protease 6 (Homo sapiens, UniProt Q9GZR1); type: functional;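 also: Luminescence-based dose-response confirmatory assay of SENP6 inhibition, following up an ultra-high-throughput screen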
# T5 sequence (Q9GZR1 whole entry): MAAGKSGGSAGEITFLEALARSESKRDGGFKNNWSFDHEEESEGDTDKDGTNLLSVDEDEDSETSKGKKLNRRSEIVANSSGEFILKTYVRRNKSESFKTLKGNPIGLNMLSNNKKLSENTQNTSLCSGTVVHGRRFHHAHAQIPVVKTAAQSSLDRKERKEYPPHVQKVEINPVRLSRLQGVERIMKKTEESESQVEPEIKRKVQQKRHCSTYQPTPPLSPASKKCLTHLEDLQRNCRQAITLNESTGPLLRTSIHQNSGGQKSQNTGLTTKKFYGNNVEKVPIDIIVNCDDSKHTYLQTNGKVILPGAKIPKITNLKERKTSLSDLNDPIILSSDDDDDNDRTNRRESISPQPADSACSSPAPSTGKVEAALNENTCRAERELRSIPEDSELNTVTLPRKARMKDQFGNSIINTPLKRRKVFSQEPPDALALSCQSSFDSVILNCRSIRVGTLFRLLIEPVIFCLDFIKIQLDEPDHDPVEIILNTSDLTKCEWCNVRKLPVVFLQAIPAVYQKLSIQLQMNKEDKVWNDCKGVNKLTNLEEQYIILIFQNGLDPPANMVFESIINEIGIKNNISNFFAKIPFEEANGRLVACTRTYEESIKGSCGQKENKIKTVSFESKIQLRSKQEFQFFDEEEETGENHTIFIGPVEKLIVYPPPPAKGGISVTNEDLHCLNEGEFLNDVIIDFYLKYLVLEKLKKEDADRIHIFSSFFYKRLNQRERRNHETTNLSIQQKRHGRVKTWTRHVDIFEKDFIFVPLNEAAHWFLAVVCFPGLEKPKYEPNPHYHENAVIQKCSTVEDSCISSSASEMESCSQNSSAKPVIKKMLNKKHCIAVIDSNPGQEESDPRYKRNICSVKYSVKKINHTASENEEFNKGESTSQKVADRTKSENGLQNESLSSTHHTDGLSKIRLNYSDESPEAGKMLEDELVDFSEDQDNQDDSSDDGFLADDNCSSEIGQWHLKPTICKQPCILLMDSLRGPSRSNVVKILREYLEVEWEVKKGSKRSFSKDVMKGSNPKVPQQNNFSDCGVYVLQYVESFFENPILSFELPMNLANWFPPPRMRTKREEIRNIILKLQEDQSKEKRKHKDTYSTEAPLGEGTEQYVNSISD
# [13] = biological target: T6, Sentrin-specific protease 7 (Homo sapiens, UniProt Q9BQF6); type: functional;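 also: Luminescence-based dose-response confirmation of ultra-high-throughput screening hits, measuring inhibition of SENP7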
# T6 sequence (Q9BQF6 whole entry): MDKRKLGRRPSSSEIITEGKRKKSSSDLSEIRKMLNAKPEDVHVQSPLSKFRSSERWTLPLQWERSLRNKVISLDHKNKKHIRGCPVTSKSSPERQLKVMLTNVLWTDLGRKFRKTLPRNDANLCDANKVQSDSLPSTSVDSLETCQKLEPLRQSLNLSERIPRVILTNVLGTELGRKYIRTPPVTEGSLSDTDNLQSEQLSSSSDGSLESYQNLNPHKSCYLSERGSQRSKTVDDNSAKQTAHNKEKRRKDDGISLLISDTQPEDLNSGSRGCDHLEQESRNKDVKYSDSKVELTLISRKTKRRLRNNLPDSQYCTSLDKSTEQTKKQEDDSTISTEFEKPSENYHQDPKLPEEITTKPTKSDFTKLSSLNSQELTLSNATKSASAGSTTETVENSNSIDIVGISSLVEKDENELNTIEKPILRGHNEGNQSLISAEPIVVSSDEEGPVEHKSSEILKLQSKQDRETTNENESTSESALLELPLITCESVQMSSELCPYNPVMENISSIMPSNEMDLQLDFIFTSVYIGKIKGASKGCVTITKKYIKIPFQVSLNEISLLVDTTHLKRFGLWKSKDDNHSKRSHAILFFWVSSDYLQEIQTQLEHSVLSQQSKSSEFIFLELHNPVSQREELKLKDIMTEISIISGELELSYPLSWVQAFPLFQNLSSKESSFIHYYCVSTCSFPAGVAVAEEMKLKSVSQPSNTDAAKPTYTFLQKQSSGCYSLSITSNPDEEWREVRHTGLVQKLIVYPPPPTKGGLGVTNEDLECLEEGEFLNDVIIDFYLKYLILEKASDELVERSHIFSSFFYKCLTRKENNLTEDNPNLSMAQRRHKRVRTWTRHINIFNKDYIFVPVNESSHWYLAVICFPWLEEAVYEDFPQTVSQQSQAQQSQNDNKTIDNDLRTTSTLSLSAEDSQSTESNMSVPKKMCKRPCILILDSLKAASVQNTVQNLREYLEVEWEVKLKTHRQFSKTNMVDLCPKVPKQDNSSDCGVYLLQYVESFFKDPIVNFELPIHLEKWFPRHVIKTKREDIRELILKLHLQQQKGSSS
# Caspase-3 = biological target: T7, Caspase-3 (Homo sapiens, UniProt P42574); type: functional;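 also: Dose-response selectivity test against caspase-3 for candidate inhibitors of sentrin-specific proteases (SENPs)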
# T7 sequence (P42574 whole entry): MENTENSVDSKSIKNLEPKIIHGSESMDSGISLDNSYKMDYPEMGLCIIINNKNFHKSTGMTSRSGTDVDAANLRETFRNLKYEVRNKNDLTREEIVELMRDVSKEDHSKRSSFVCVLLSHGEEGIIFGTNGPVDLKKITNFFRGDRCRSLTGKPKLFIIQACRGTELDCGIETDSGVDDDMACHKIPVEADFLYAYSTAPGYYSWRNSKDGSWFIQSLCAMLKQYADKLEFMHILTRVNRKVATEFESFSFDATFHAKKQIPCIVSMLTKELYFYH
# [14] = biological target: Induced myeloid leukemia cell differentiation protein Mcl-1 (Homo sapiens, UniProt Q07820); type: functional
# Cytochrome P450 3A4 = Cytochrome P450 3A4 (Homo sapiens, UniProt P08684);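 also: CYP3A4 tested as one member of a cytochrome P450 panel screen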
# Cytochrome P450 2C19 = Cytochrome P450 2C19 (Homo sapiens, UniProt P33261); test: Cytochrome panel assay with activity outcomes. Panel member name: p450-cyp2c19 Compounds with AC50 equal or less than 10 uM are considered active; type: functional
# Chain of Cytochrome P450 2C19 (P33261 whole entry): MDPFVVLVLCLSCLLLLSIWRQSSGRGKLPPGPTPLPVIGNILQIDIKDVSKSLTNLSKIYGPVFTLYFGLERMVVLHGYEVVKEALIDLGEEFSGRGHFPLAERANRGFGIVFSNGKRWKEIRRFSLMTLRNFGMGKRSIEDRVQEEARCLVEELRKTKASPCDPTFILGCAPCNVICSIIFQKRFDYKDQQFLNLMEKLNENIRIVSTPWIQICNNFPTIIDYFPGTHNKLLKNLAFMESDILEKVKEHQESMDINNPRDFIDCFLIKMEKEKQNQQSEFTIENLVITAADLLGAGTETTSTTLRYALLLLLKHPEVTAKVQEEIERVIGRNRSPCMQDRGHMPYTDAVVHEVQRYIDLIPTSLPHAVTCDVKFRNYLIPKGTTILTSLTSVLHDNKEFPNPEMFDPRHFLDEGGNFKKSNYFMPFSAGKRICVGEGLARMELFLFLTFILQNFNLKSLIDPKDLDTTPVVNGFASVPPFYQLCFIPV
# T1 sequence (P11712 whole entry): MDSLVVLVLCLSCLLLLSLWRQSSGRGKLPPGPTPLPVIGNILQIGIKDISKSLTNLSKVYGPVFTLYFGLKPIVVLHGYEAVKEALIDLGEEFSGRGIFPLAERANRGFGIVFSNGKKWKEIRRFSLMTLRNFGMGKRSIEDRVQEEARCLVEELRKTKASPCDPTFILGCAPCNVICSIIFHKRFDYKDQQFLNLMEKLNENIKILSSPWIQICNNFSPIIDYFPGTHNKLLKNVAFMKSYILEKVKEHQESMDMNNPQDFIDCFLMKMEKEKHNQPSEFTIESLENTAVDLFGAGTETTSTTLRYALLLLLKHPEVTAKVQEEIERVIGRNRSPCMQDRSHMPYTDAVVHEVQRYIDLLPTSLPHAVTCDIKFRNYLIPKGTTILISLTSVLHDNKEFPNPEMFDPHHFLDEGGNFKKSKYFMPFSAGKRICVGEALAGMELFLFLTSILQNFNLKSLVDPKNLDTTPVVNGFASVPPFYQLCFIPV
# Chain of Cytochrome P450 2D6 (P10635 whole entry): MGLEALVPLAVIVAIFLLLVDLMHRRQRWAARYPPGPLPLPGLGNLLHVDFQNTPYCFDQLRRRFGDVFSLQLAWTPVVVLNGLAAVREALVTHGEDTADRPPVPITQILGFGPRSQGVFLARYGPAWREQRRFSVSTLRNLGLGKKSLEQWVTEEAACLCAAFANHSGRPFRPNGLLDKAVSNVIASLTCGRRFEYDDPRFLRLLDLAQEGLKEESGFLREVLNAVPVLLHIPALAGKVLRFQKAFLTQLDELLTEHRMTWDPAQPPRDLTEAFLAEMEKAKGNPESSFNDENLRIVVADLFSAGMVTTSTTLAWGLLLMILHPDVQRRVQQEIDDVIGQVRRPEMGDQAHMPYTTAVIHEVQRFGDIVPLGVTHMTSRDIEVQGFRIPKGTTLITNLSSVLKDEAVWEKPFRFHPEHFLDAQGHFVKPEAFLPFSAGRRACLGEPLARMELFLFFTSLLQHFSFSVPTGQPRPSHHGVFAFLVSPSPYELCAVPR
# T3 sequence (P49327 whole entry, the tested form may be a part): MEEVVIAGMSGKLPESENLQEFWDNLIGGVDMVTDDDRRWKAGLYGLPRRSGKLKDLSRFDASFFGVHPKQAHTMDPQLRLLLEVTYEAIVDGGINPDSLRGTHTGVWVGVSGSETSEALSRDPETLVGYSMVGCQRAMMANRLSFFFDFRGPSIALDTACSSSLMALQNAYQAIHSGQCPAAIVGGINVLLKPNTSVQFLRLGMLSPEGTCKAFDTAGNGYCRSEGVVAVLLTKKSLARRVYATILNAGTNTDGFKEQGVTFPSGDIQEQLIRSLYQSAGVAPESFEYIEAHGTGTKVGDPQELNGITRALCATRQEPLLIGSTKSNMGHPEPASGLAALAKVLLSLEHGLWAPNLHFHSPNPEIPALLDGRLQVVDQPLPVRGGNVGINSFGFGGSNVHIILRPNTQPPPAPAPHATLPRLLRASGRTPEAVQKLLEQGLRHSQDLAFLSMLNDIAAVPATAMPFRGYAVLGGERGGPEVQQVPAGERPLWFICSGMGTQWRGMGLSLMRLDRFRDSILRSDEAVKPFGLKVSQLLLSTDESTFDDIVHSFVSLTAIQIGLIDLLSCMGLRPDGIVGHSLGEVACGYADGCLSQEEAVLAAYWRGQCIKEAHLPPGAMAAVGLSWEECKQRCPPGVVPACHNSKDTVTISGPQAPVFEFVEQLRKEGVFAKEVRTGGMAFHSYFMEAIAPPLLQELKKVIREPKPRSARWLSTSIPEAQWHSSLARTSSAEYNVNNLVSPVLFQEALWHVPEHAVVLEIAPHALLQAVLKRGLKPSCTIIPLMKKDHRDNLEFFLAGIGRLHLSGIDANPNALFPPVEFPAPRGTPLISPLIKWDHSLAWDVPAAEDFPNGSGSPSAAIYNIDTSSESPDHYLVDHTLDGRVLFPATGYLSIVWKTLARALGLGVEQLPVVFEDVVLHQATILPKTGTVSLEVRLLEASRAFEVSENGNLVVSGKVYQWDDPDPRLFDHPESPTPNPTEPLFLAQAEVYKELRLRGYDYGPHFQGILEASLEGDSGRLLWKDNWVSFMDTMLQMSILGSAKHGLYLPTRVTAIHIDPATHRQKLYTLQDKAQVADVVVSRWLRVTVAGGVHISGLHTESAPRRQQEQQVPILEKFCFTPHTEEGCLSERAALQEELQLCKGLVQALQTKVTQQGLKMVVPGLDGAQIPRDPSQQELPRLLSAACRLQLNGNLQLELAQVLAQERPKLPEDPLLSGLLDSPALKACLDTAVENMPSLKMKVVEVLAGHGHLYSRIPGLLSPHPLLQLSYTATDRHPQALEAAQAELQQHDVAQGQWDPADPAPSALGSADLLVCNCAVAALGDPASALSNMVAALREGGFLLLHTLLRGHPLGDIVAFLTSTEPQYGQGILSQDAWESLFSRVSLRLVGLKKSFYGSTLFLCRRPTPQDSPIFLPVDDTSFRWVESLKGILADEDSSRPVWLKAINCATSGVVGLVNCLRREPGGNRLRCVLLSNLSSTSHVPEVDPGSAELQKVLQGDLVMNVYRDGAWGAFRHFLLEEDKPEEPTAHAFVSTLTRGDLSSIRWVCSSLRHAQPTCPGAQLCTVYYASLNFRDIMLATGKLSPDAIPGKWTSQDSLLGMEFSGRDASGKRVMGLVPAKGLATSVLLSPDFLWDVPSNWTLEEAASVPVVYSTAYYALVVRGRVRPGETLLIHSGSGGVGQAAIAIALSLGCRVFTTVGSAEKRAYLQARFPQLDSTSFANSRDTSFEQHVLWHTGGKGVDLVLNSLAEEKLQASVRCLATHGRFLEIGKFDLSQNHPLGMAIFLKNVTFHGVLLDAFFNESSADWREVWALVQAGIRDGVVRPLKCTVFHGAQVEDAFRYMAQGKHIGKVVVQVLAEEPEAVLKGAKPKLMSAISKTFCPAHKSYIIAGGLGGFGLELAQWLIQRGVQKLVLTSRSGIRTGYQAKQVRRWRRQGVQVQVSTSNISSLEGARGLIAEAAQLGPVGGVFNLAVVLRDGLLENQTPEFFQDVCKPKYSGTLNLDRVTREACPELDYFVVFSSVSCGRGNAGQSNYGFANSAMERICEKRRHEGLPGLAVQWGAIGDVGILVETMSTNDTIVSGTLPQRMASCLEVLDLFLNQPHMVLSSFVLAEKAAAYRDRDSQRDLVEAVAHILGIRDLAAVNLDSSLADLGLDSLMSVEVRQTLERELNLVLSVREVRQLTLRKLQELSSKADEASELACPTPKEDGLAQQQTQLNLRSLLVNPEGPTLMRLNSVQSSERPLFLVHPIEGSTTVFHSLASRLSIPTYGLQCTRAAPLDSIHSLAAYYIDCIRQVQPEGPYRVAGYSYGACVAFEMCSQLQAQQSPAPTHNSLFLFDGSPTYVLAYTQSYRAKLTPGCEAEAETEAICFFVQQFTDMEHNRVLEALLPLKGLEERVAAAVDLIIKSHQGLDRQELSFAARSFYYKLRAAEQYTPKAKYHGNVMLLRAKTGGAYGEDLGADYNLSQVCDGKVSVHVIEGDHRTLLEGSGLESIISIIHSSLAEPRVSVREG
# Chain of Induced myeloid leukemia cell differentiation protein Mcl-1 (Q07820 whole entry): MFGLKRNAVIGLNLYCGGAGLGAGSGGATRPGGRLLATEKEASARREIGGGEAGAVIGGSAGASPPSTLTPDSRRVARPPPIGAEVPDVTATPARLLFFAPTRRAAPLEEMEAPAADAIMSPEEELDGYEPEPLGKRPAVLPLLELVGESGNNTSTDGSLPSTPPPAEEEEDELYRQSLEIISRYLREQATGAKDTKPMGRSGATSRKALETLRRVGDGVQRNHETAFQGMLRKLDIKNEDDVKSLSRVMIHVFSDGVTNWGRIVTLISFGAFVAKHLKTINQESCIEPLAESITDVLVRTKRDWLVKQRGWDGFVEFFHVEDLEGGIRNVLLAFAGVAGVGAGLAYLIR
# Chain of Nonstructural protein 1 (Q194T2 whole entry, the tested form may be a part): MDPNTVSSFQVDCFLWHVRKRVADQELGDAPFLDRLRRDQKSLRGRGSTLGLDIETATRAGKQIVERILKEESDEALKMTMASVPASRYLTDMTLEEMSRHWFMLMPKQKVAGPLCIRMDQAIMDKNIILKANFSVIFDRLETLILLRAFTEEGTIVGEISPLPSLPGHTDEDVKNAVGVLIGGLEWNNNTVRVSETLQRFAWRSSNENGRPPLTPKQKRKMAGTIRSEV
# Chain of Cytochrome P450 3A4 (P08684 whole entry): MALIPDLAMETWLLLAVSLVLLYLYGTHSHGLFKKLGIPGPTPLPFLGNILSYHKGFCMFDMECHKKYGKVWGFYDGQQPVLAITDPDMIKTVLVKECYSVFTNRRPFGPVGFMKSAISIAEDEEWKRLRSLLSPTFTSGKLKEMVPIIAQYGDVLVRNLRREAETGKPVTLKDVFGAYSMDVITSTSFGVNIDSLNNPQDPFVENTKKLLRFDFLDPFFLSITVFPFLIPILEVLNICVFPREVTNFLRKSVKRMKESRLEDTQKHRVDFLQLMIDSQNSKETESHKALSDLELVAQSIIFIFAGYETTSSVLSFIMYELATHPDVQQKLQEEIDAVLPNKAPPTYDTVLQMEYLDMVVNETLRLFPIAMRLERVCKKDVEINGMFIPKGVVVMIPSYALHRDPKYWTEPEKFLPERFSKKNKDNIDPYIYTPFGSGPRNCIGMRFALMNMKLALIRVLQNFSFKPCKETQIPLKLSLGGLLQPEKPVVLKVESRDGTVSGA
structure (smiles),measurement,setting,value
Cc1c(C(=O)c2ccc3ccccc3c2)c2cccc3c2n1[C@H](CN1CCOCC1)CO3,AC50,Cytochrome P450 2C9 [1],inconclusive
CCCc1cc2c(cc1NC(=O)c1ccc(Br)cc1)OCO2,IC50,H9c2,> 79 µM (inactive)
same,AC50,Cytochrome P450 2D6,0.708 µM (inconclusive)
same,AC50,Cytochrome P450 1A2,1.26 µM (inconclusive)
same,AC50,Cytochrome P450 2C9 [2],2.82 µM (inconclusive)
Cc1cccc(C(=O)Nc2nnc(-c3ccc(C(C)(C)C)cc3)s2)c1,AC50,Cytochrome P450 2C9 [1],inconclusive
Cc1cnc(CNc2ncnc3ccc(-c4ccc(N(C)C)cc4)cc23)cn1,AC50,Cytochrome P450 2D6,25.1 µM (inconclusive)
N#C/C(=C/c1cn(-c2ccccc2)nc1-c1cccc(OCc2ccc(F)cc2)c1)C(=O)NCCCn1ccnc1,EC50,[3],> 30 µM (not active)
same,AC50,[4],2.5 µM (active)
same,EC50,[5],1.46 µM (active)
same,EC50,[6],23.4 µM (active)
same,EC50,[7],21.7 µM (active)
same,IC50,Nonstructural protein 1,81.1 µM (active)
O=C(c1csnn1)N1CCC2(CCCN(c3ccccc3)C2)CC1,AC50,Cytochrome P450 2D6,20 µM (inconclusive)
COc1ccc(C(=O)c2cnc3ccccc3c2-c2ccccc2)cc1,AC50,Cytochrome P450 2D6,31.6 µM (inconclusive)
same,AC50,Cytochrome P450 2C9 [2],7.08 µM (inconclusive)
COc1ccc2c(c1)C(=O)N1[C@H]3c4cc(Br)ccc4OC[C@@H]3[C@H](c3ccccc3)[C@]1(C)C(=O)N2,IC50,Fatty acid synthase [8],17.1 µM (active)
same,IC50,Fatty acid synthase [9],18 µM (active)
same,IC50,[10],> 80 µM (inactive)
CC(C)CO/N=C1/[C@H]2O[C@@H]2[C@@H](O)[C@H]2[C@H]1CCn1c(=O)n(-c3ccccc3)c(=O)n12,AC50,Cytochrome P450 2C9 [1],inconclusive
Cc1cc2cc(CN(Cc3cccs3)S(=O)(=O)c3ccc4c(c3)OCCO4)c(O)nc2cc1C,EC50,[6],33.8 µM (active)
same,EC50,[7],30.2 µM (active)
CN(C)S(=O)(=O)c1ccc(Nc2nc(C3CC3)nc3c2nnn3Cc2ccccc2Cl)cc1,AC50,INS1,4.71 µM (active)
same,IC50,[10],> 80 µM (inactive)
CN(C)c1ccc(NC(=O)CSc2nc(N)c(C(=O)Nc3ccc(N(C)C)cc3)s2)cc1,AC50,Cytochrome P450 2D6,17.8 µM (inconclusive)
Cc1ccc(O)c(NC(=O)c2cc(-c3ccco3)on2)c1,IC50,[11],> 100 µM (inactive)
same,IC50,[12],> 100 µM (inactive)
same,IC50,[13],8.57 µM (active)
same,IC50,[10],> 80 µM (inactive)
same,IC50,Caspase-3,21.3 µM (active)
CCOC(=O)C(C(=O)OCC)C(Nc1cccc(Br)c1)c1ccccc1 (centres undefined),EC50,[6],115 µM (active)
same,EC50,[7],147 µM (active)
O=C(c1cccc(F)c1)N1CCC2(CCCN(c3ncccn3)C2)CC1,AC50,Cytochrome P450 2D6,31.6 µM (inconclusive)
same,AC50,Cytochrome P450 1A2,25.1 µM (inconclusive)
Cc1cc(C)cc(NS(=O)(=O)c2ccc3[nH]cc(C(=O)NCc4ccco4)c(=O)c3c2)c1,AC50,[4],0.428 µM (active)
same,EC50,[6],2.68 µM (active)
same,EC50,[7],1.78 µM (active)
COc1ccc(-n2c(=O)c(-c3cn(C)c4ccccc34)nc3cncnc32)cc1,AC50,Cytochrome P450 2C9 [1],inconclusive
CCOC(=O)NNc1ccc2nonc2c1[N+](=O)[O-],IC50,[11],4.85 µM (active)
same,IC50,[12],4.96 µM (active)
same,IC50,[13],10.8 µM (active)
same,IC50,[14],42.2 µM (active)
same,IC50,Caspase-3,8.38 µM (active)
N#Cc1cccc(-c2cc(NCc3cccs3)ncn2)c1,AC50,Cytochrome P450 2D6,20 µM (inconclusive)
same,AC50,Cytochrome P450 3A4,1.58 µM (inconclusive)
CC(C)OCCCN1C(=O)c2[nH]nc(-c3ccccc3O)c2C1c1cccc(Cl)c1 (centres undefined),EC50,[6],25.2 µM (active)
same,EC50,[7],27.6 µM (active)
Cc1cc(C)n(CCc2nc(-c3ccc(-c4ccccc4)cc3)cs2)n1,IC50,[11],59.3 µM (active)
same,IC50,[12],20.5 µM (active)
same,IC50,[13],4.98 µM (active)
same,IC50,Caspase-3,23.9 µM (active)
Br.CCCCN1C2=NCCCN2c2ccccc21,AC50,Cytochrome P450 2C19,inconclusive
same,AC50,Cytochrome P450 2C9 [1],inconclusive
Oc1nc(S)nc(SCc2c(Cl)c(Cl)c(Cl)c(Cl)c2Cl)n1,AC50,Cytochrome P450 2D6,3.98 µM (inconclusive)
